# Laboratory results published in patent US20240360177A1, “PEPTIDES WITH ANTIMICROBIAL ACTIVITIES” (priority 2021, published 2024).
# Where two headings read alike, the source gives them in different places. Non-standard residues stand in square brackets, D forms with d. Residues, ends and D or L forms follow the SMILES beside them. Aoc = NCCCCCCCC(=O)O; βAla = NCCC(=O)O
# Key:
# C. albicans = conditions: 24 h
# C. neoformans = conditions: 72 h
# C. auris = conditions: 24 h
# C. tropicalis = conditions: 24 h
# C. gattii = conditions: 72 h
# C. krusei = conditions: 24 h
# C. glabrata = conditions: 24 h
# Coccidioides species = conditions: N = 3 strains; 48-72 hrs; >50% inhibition
# C. dubliniensis = conditions: 24 h
# C. parapsilosis = conditions: 24 h
# in vitro [1] = conditions: human
# in vitro [2] = conditions: human, human serum, full strength
# [3] = system: Pseudomonas aeruginosa ATCC 27853; assay type: cell-based
# [4] = system: Escherichia coli ATCC 25922; assay type: cell-based
# [5] = system: Staphylococcus aureus ATCC 29213; assay type: cell-based
# [6] = Acute toxicity in CD-1 mice; conditions: both sexes, mouse, in vivo
# Procedure: Acute toxicity and subacute toxicity of ACPs were tested in CD-1 mice. In the acute toxicity study, groups of CD-1 male or female mice were administered single intravenous or intraperitoneal escalating doses (n=2-3 per dose) of the peptides dissolved in normal saline for injection or in phosphate buffered saline. The intravenous dose was administered via tail vein with a slow push over 15-20 seconds. Doses were escalated based on tolerability.
# [7] = EC50 cytotoxicity in HepG2, intracellular ATP assay
SMILES,MIC C. albicans (C. albicans),MIC C. neoformans (C. neoformans),MIC C. auris (C. auris),MIC Range Fusarium spp. (Fusarium spp.; 48 h),MIC C. tropicalis (C. tropicalis),MIC Range Rhizopus arrhizus (Rhizopus arrhizus; 24 h),MIC Range Scedosporium spp. (Scedosporium spp.; 72 h),MIC C. gattii (C. gattii),MIC C. krusei (C. krusei),MIC Range Paecilomyces variotii (Paecilomyces variotii; 48 h),MIC C. glabrata (C. glabrata),MIC Range Lomentospora prolificans (Lomentospora prolificans),MIC Range Coccidioides species (Coccidioides species),MIC C. dubliniensis (C. dubliniensis),MIC C. parapsilosis (C. parapsilosis),EC50 (in vitro [1]; [7]),other results
"CC[C@@H]([C@H](C)O)n1ncn(-c2ccc(N3CCN(c4ccc(OC[C@@H]5CO[C@@](Cn6cncn6)(c6ccc(F)cc6F)C5)cc4)CC3)cc2)c1=O [POS, posaconazole, reference compound]",–,–,–,–,–,–,–,–,–,–,–,–,–,–,–,–,"MIC Range Rhizopus arrhizus (Rhizopus arrhizus; N = 3 strains, 24 hrs): 0.12 to 0.25 µg/mL; MIC Range Paecilomyces variotii (Paecilomyces variotii; N = 1 strain, 48 hrs): ≤0.03 µg/mL"
"N=C(N)NCCC[C@@H](N)C(=O)N[C@@H](CCCNC(=N)N)C(=O)N[C@H](CCCNC(=N)N)C(=O)NCC(=O)N[C@H](CCCNC(=N)N)C(=O)N[C@@H](CCCNC(=N)N)C(=O)N[C@H](CCCNC(=N)N)C(=O)NCC(=O)N[C@H](CCCNC(=N)N)C(=O)N[C@@H](CCCNC(=N)N)C(=O)N[C@H](CCCNC(=N)N)C(=O)N[C@@H](CCCNC(=N)N)C(=O)NCC(=O)N[C@H](CCCNC(=N)N)C(=O)N[C@@H](CCCNC(=N)N)C(=O)N[C@H](CCCNC(=N)N)C(=O)N[C@@H](CCCNC(=N)N)C(=O)O [SEQ ID NO: 3, rRr-G-rRr-G-rRrR-G-rRrR] (H-[dR]R[dR]G[dR]R[dR]G[dR]R[dR]RG[dR]R[dR]R-OH)",0.5 µg/mL,0.5 µg/mL,4 µg/mL,0.12 to 0.5 µg/mL,0.25 µg/mL,1 to 8 µg/mL,≤0.12 µg/mL,0.5 µg/mL,1 µg/mL,0.25 µg/mL,0.25 µg/mL,≤0.12 µg/mL,0.25 to 0.5 µg/mL,0.25 µg/mL,0.25 µg/mL,> 300 µg/mL,MIC50 against Candida spp. (Candida spp.): 0.5 µg/mL; MIC90 against Candida spp. (Candida spp.): 4 µg/mL; EC50 (in vitro [1]; EC50 cytotoxicity in HepG2 cells (50% cell viability)): > 300 µg/mL
"N=C(N)NCCC[C@@H](N)C(=O)N[C@@H](CCCNC(=N)N)C(=O)N[C@H](CCCNC(=N)N)C(=O)NCC(=O)N[C@H](CCCNC(=N)N)C(=O)N[C@@H](CCCNC(=N)N)C(=O)N[C@H](CCCNC(=N)N)C(=O)NCC(=O)N[C@H](CCCNC(=N)N)C(=O)N[C@@H](CCCNC(=N)N)C(=O)N[C@H](CCCNC(=N)N)C(=O)N[C@@H](CCCNC(=N)N)C(=O)NCC(=O)N[C@H](CCCNC(=N)N)C(=O)N[C@@H](CCCNC(=N)N)C(=O)N[C@H](CCCNC(=N)N)C(=O)N[C@@H](CCCNC(=N)N)C(N)=O [SEQ ID NO: 4, rRr-G-rRr-G-rRrR-G-rRrR-NH2] (H-[dR]R[dR]G[dR]R[dR]G[dR]R[dR]RG[dR]R[dR]R-NH2)",0.5 µg/mL,0.25 µg/mL,8 µg/mL,0.06 to 8 µg/mL,0.25 µg/mL,0.5 to 8 µg/mL,≤0.12 µg/mL,0.5 µg/mL,0.5 µg/mL,0.25 µg/mL,0.25 µg/mL,≤0.12 µg/mL,0.25 to 0.5 µg/mL,0.25 µg/mL,0.25 µg/mL,> 300 µg/mL,–
"N=C(N)NCCC[C@H](NC(=O)[C@H](CCCNC(=N)N)NC(=O)[C@H](CCCNC(=N)N)NC(=O)[C@H](CCCNC(=N)N)NC(=O)CCNC(=O)[C@H](CCCNC(=N)N)NC(=O)[C@H](CCCNC(=N)N)NC(=O)[C@H](CCCNC(=N)N)NC(=O)[C@H](CCCNC(=N)N)NC(=O)CCNC(=O)[C@H](CCCNC(=N)N)NC(=O)[C@H](CCCNC(=N)N)NC(=O)[C@H](CCCNC(=N)N)NC(=O)CCNC(=O)[C@H](CCCNC(=N)N)NC(=O)[C@H](CCCNC(=N)N)NC(=O)[C@@H](N)CCCNC(=N)N)C(N)=O [SEQ ID NO: 13, RRR-(Apr)-RRR-(Apr)-RRRR-(Apr)-RRRR-NH2] (H-RRR[βAla]RRR[βAla]RRRR[βAla]RRRR-NH2)",8 µg/mL,1 µg/mL,4 µg/mL,0.5 to 2 µg/mL,0.5 µg/mL,–,0.25 µg/mL,0.5 µg/mL,2 µg/mL,–,32 µg/mL,–,–,2 µg/mL,0.25 µg/mL,> 300 µg/mL,"remaining at 2 h, 5 μM (in vitro [2]): ~40%; MIC50 Candida species (Candida spp.): 4 µg/mL; MIC90 Candida species (Candida spp.): 16 µg/mL"
"N=C(N)NCCC[C@H](NC(=O)CCNC(=O)[C@H](CCCNC(=N)N)NC(=O)[C@@H](CCCNC(=N)N)NC(=O)[C@@H](N)CCCNC(=N)N)C(=O)N[C@H](CCCNC(=N)N)C(=O)N[C@@H](CCCNC(=N)N)C(=O)NCCC(=O)N[C@@H](CCCNC(=N)N)C(=O)N[C@H](CCCNC(=N)N)C(=O)N[C@@H](CCCNC(=N)N)C(=O)N[C@H](CCCNC(=N)N)C(=O)NCCC(=O)N[C@@H](CCCNC(=N)N)C(=O)N[C@H](CCCNC(=N)N)C(=O)N[C@@H](CCCNC(=N)N)C(=O)N[C@H](CCCNC(=N)N)C(N)=O [SEQ ID NO: 15, RrR-(Apr)-RrR-(Apr)-RrRr-(Apr)-RrRr-NH2] (H-R[dR]R[βAla]R[dR]R[βAla]R[dR]R[dR][βAla]R[dR]R[dR]-NH2)",1 µg/mL,0.5 µg/mL,0.5 µg/mL,0.12 to 0.25 µg/mL,0.25 µg/mL,–,0.25 to 0.5 µg/mL,0.25 µg/mL,0.5 µg/mL,–,0.5 µg/mL,–,–,0.5 µg/mL,0.25 µg/mL,> 300 µg/mL,"MIC Pseudomonas aeruginosa [3]: 64 µg/mL; remaining at 2 h, 5 μM (in vitro [2]): ~100%; MIC Escherichia coli [4]: 32 µg/mL; MIC50 Candida species (Candida spp.): 0.5 µg/mL; MIC90 Candida species (Candida spp.): 1 µg/mL; MIC Staphylococcus aureus [5]: 16 µg/mL"
"N=C(N)NCCC[C@@H](N)C(=O)N[C@@H](CCCNC(=N)N)C(=O)N[C@H](CCCNC(=N)N)C(=O)NCCC(=O)N[C@H](CCCNC(=N)N)C(=O)N[C@@H](CCCNC(=N)N)C(=O)N[C@H](CCCNC(=N)N)C(=O)NCCC(=O)N[C@H](CCCNC(=N)N)C(=O)N[C@@H](CCCNC(=N)N)C(=O)N[C@H](CCCNC(=N)N)C(=O)N[C@@H](CCCNC(=N)N)C(=O)NCCC(=O)N[C@H](CCCNC(=N)N)C(=O)N[C@@H](CCCNC(=N)N)C(=O)N[C@H](CCCNC(=N)N)C(=O)N[C@@H](CCCNC(=N)N)C(=O)NCCCCCCCC(=O)O [SEQ ID NO: 16, rRr-(Apr)-rRr-(Apr)-rRrR-(Apr)-rRrR-(Aoa)] (H-[dR]R[dR][βAla][dR]R[dR][βAla][dR]R[dR]R[βAla][dR]R[dR]R[Aoc]-OH)",1 µg/mL,0.5 µg/mL,0.5 µg/mL,0.25 to 1 µg/mL,0.5 µg/mL,2 to 64 µg/mL,–,0.25 µg/mL,0.5 µg/mL,0.25 µg/mL,0.5 µg/mL,0.25 µg/mL,0.5 µg/mL,0.5 µg/mL,0.5 µg/mL,> 300 µg/mL,"MTD ([6]; single IP dose, read-out: Tolerated single intraperitoneal dose): 10 to 15 mg/kg; MTD ([6]; single IV dose via tail vein, read-out: Tolerated single intravenous dose): 5 to 7.5 mg/kg"
"C[C@@H](c1ncncc1F)[C@](O)(Cn1cncn1)c1ccc(F)cc1F [VOR, voriconazole, reference compound]",–,–,–,–,–,–,–,–,–,–,–,–,–,–,–,–,"MIC Range Fusarium spp. (Fusarium spp.; N = 3 strains, 48 hrs): 4 to 16 µg/mL; MIC Range Scedosporium spp. (Scedosporium spp.; N = 2 strains, 72 hrs): 1 to 2 µg/mL; MIC Range Paecilomyces variotii (Paecilomyces variotii; N = 1 strain, 48 hrs): 0.12 µg/mL; MIC Range Lomentospora prolificans (Lomentospora prolificans; N = 1 strain): 16 µg/mL"
